Measurements from article PMC7654703 (ACS chemical biology, 2020).

Experiments:
TNFα-TNFR1 interaction = TNFα-TNFR1 interaction (Homo sapiens, UniProt P01375); assay: TNFα-TNFR1 competition ELISA; format: binding; settings: 100 μM SPD304 alone
[1] = optical sensor assay; cited from earlier work
[2] = system: TNFα-mediated death of WEHI-13VAR cells; assay: WEHI-13VAR cell viability assay; format: cell-based, mouse; settings: pre-incubation of TNFα with 20 μM SPD304 alone; final 20 nM after dilution
[3] = target: bicyclic 19-mer peptide (synthetic construct); settings: cited from earlier work
TNFα trimer = TNFα trimer (Homo sapiens, UniProt P01375); assay: TNFα oligomerization state by SEC; format: biochemical; settings: 1 μM TNFα, additive without peptide (0.05% TWEEN20, one hour RT; 10 μM SPD304)
TNFα trimer, sequence (P01375 77-233 limits assumed): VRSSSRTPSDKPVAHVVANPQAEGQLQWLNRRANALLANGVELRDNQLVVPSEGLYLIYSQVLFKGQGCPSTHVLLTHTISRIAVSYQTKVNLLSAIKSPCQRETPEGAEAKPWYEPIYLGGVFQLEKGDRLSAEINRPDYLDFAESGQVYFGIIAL

TNFα, sequence (P01375 77-233): as the sequence (P01375 77-233 limits assumed) above
TNFα-TNFR1 interaction, sequence (P01375 77-233 limits assumed): as above

Q: Which “TNFα binding to TNFR1 blocked” value (TNFα-TNFR1 interaction) does the source give for `Cc1cc2occ(CN(C)CCN(C)Cc3cn(-c4cccc(C(F)(F)F)c4)c4ccccc34)c(=O)c2cc1C` [SPD304] here?
A: ~ 30%

Q: What about the “critical aggregation concentration (CAC)” value [1] of the same molecule?
A: 10 µM

Q: What about the “block of TNFα-mediated cell death by additive alone” value [2] of the same molecule?
A: did not substantially block

Q: For TNFα (from UniProt P01375), which Kd [3] is on record?
A: 5 nM

Q: Which “effect of additive alone on TNFα trimer by SEC” value (TNFα trimer) does the source give for TWEEN20 here?
A: did not change
